Assay results reported in patent US20050196744A1 (priority 2004, published 2005).
Values joined by “and” are separate entries in the source; they are usually repeats but may differ in a detail not shown here. Equal entries are not always repeated. Marks after values point to notes of the source that are not given here.

T1: D79E DAT (Rattus norvegicus, UniProt P23977, D79E)
T1 construct: expressed in transfected cells; host or cells: CHO-K1, stably transfected; intact attached monolayers
T1 sequence (P23977 1-619 D79E): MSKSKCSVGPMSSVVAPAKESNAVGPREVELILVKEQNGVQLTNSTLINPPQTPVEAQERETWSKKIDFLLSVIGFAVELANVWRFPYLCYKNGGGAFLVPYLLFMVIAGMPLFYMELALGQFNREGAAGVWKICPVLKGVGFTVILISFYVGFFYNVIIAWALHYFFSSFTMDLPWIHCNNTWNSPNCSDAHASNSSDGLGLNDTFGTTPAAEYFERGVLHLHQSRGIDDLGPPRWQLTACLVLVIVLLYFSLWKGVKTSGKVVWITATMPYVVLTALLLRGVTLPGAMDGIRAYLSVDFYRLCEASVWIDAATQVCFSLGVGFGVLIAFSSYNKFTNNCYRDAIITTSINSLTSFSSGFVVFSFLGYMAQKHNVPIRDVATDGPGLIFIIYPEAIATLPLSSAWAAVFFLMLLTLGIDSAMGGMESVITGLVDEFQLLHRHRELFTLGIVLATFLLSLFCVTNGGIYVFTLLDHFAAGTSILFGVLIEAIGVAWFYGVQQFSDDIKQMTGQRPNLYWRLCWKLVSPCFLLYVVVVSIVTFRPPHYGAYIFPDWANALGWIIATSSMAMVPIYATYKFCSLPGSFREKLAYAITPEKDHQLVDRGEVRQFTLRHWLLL

B1: WT DAT (Rattus norvegicus) (protein)
chain: MSKSKCSVGPMSSVVAPAKESNAVGPREVELILVKEQNGVQLTNSTLINPPQTPVEAQERETWSKKIDFLLSVIGFAVDLANVWRFPYLCYKNGGGAFLVPYLLFMVIAGMPLFYMELALGQFNREGAAGVWKICPVLKGVGFTVILISFYVGFFYNVIIAWALHYFFSSFTMDLPWIHCNNTWNSPNCSDAHASNSSDGLGLNDTFGTTPAAEYFERGVLHLHQSRGIDDLGPPRWQLTACLVLVIVLLYFSLWKGVKTSGKVVWITATMPYVVLTALLLRGVTLPGAMDGIRAYLSVDFYRLCEASVWIDAATQVCFSLGVGFGVLIAFSSYNKFTNNCYRDAIITTSINSLTSFSSGFVVFSFLGYMAQKHNVPIRDVATDGPGLIFIIYPEAIATLPLSSAWAAVFFLMLLTLGIDSAMGGMESVITGLVDEFQLLHRHRELFTLGIVLATFLLSLFCVTNGGIYVFTLLDHFAAGTSILFGVLIEAIGVAWFYGVQQFSDDIKQMTGQRPNLYWRLCWKLVSPCFLLYVVVVSIVTFRPPHYGAYIFPDWANALGWIIATSSMAMVPIYATYKFCSLPGSFREKLAYAITPEKDHQLVDRGEVRQFTLRHWLLL
B2: D79E DAT (Rattus norvegicus; D79E) (protein)
chain: MSKSKCSVGPMSSVVAPAKESNAVGPREVELILVKEQNGVQLTNSTLINPPQTPVEAQERETWSKKIDFLLSVIGFAVELANVWRFPYLCYKNGGGAFLVPYLLFMVIAGMPLFYMELALGQFNREGAAGVWKICPVLKGVGFTVILISFYVGFFYNVIIAWALHYFFSSFTMDLPWIHCNNTWNSPNCSDAHASNSSDGLGLNDTFGTTPAAEYFERGVLHLHQSRGIDDLGPPRWQLTACLVLVIVLLYFSLWKGVKTSGKVVWITATMPYVVLTALLLRGVTLPGAMDGIRAYLSVDFYRLCEASVWIDAATQVCFSLGVGFGVLIAFSSYNKFTNNCYRDAIITTSINSLTSFSSGFVVFSFLGYMAQKHNVPIRDVATDGPGLIFIIYPEAIATLPLSSAWAAVFFLMLLTLGIDSAMGGMESVITGLVDEFQLLHRHRELFTLGIVLATFLLSLFCVTNGGIYVFTLLDHFAAGTSILFGVLIEAIGVAWFYGVQQFSDDIKQMTGQRPNLYWRLCWKLVSPCFLLYVVVVSIVTFRPPHYGAYIFPDWANALGWIIATSSMAMVPIYATYKFCSLPGSFREKLAYAITPEKDHQLVDRGEVRQFTLRHWLLL

Experiments:
[1] = biological target: T2, WT DAT (Rattus norvegicus, UniProt P23977); test: [3H]-dopamine uptake and uptake inhibition, CHO cells stably expressing WT DAT; assay type: cell-based
T2 construct: expressed in transfected cells; host or cells: CHO-K1, stably transfected (G-418 selection); intact monolayers in A1 and A3, membranes in A5

[2] = biological target: T1, D79E DAT; test: [3H]-dopamine uptake and uptake inhibition, CHO cells stably expressing D79E DAT; assay type: cell-based
[3] = biological target: T1, D79E DAT; test: [3H]-WIN 35,428 binding / displacement at CHO cells stably expressing D79E DAT; conditions: for loss of binding affinity ([3H]-WIN 35,428 displacement) caused by the D79E mutation (D79E vs WT DAT): CHO cells, comparison of Ki values
Protocol: (§1) Ligand binding assays. […] Nonradioactive competitor concentrations were as indicated above for uptake inhibition. […] Membranes were aspirated with a Brandel harvester onto GF/B glass-fiber filter paper, washed with 3×5 ml cold binding buffer, and the filters measured for radioactivity via scintillation counting. For all binding assays, data were analyzed with the GraphPad Prism 2.0 software to obtain Kd, Ki and Bmax values.

[4] = biological target: T2, WT DAT; test: [3H]-WIN 35,428 binding / displacement at intact CHO cells stably expressing WT DAT
Protocol: as §1

[5] = system: intact naïve CHO cells; test: [3H]-WIN 35,428 low affinity site of intact naïve CHO cells; assay type: binding; conditions: intact naïve (untransfected) CHO cells
Protocol: To further address this steric issue, dihydroxy-benzylamine (DHBA) was employed as a potential DAT substrate. […] Ligand binding assays were conducted under conditions that matched those for assaying uptake inhibition.

[6] = substrate: NCCc1ccc(O)c(O)c1; test: cells, lysate or membranes; conditions: 22° C., KRH buffer, mean ± standard error, pH 7.3
[7] = CHO cells, comparison of Ki values
[8] = DAT substrates, CHO cells, WT DAT, 22° C., KRH buffer, mean ± standard error, read-out: Ki, inhibition of [3H]-DA uptake
[9] = DAT substrates, CHO cells, D79E DAT, 22° C., KRH buffer, mean ± standard error, read-out: Ki, inhibition of [3H]-DA uptake
[10] = DAT substrates, intact CHO cells, WT DAT, 1 nM [3H]-WIN 35,428, 15 min, 22° C., read-out: Ki, [3H]-WIN inhibition (binding affinity)
[11] = DAT substrates, intact CHO cells, D79E DAT, 1 nM [3H]-WIN 35,428, 15 min, 22° C., read-out: Ki, [3H]-WIN inhibition (binding affinity)

Row | Molecule | loss of binding affinity ([3H]-WIN 35,428 displacement) caused by the D79E mutation (D79E vs WT DAT) [3] | loss of dopamine uptake inhibition potency caused by the D79E mutation (D79E vs WT DAT) [2, 7] | Ki [3] | Ki [1, 8] | Ki [2, 9] | Ki [4, 10] | Ki [3, 11] | other results
1 | NCCc1ccc(O)c(O)c1 [Dopamine, dopamine] | almost identical | – | – | – | – | – | – | Vmax/Bmax (dopamine turnover rate) ([1]; WT DAT CHO cells, Bmax from [3H]-WIN 35,428 saturation binding): 34.1 min⁻¹; Vmax of dopamine uptake ([1]; WT DAT CHO cells, dopamine at 0.1 Ci/mmol, 5 min, 22° C.): 348 ± 22 pmol/mg/min; WT DAT turnover rate higher than that for D79E DAT CHO cells ([1]; [3H]-dopamine uptake kinetics, CHO cells): 7 fold; Vmax/Bmax (dopamine turnover rate) ([2]; D79E DAT CHO cells, Bmax from [3H]-WIN 35,428 saturation binding): 7.9 min⁻¹; Vmax of dopamine uptake ([2]; D79E DAT CHO cells, dopamine at 0.1 Ci/mmol, 5 min, 22° C.): 48 ± 4^a pmol/mg/min; decrease in DAT dopamine turnover rate rendered by the D79E mutation ([2]; corrected for fewer transporters at the cell surface): approximately 4 fold
2 | OC1(c2ccc(Cl)cc2)c2ccccc2C2=NCCN21 (stereo not shown) [Mazindol, mazindol] | – | no effect | 0.041 ± 0.003 µM | – | – | – | – | Ki [1]: 0.031 ± 0.003 µM; Ki [2]: 47 ± 4 nM; Ki [4]: 13 ± 1 nM
3 | COC(=O)C(c1ccccc1)C1CCCCN1 (stereo not shown) [Methylphenidate, methylphenidate] | – | no effect | 0.167 ± 0.002 µM | – | – | – | – | Ki [2]: 161 ± 9 nM
4 | NC[C@H](O)c1ccc(O)c(O)c1 [Norepinephrine] | 2 fold | equally effective | 5.5 ± 0.7 µM | 5.4 µM | 5200 ± 300 nM | 2300 nM | – | –
5 | COC(=O)[C@H]1[C@@H](c2ccc(F)cc2)C[C@@H]2CC[C@H]1N2C [WIN 35,428] | – | no effect | – | – | – | – | – | specific binding of [3H]-WIN 35,428 ([3]; D79E DAT, suspended cells or cell membrane preparation in KRH uptake buffer): undetectable; Kd [5]: > 1000 nM
6 | NCCc1cccc(O)c1 [m-Tyramine] | – | unchanged | – | 1.4 ± 0.3 µM | 1200 ± 300 nM | 1000 nM | 6.6 ± 1.2 µM | –
7 | NCCc1ccc(O)cc1 [p-Tyramine] | – | 2 fold | – | 1.7 ± 0.1 µM | 3300 ± 400 nM | 800 nM | 4.3 ± 0.5 µM | –
8 | dihydroxybenzylamine [DHBA] | identical | – | – | 5760 ± 540 µM | 782000 ± 22000 nM | 800000 nM and 801000 nM | 791 ± 27 µM | Ki at D79E DAT relative to the Ki value for dopamine binding at WT DAT (higher) [2]: 377 fold; Ki for uptake inhibition at D79E DAT relative to the dopamine Km value at WT DAT (higher) [2]: 460 fold; potency in inhibiting [3H]-dopamine uptake, higher at D79E DAT compared to WT DAT [2, 7]: 7 fold; more potent as inhibitor of [3H]-WIN 35,428 binding than as inhibitor of [3H]-dopamine uptake at WT DAT ([4]; intact CHO cells stably expressing WT DAT): 7 fold; potency of inhibition of [3H]-WIN 35,428 binding compared with potency for inhibition of [3H]-dopamine uptake at D79E DAT ([3]; intact CHO cells, D79E DAT): agrees well
9 | B1 | – | – | – | – | – | – | – | Km ([6]; other: CHO cells stably expressing WT DAT): 1.7 ± 0.3 µM
10 | B2 | – | – | – | – | – | – | – | Km ([6]; other: CHO cells stably expressing D79E DAT): 2.3 ± 0.3^ μM
